According to article PMC6891768 (Marine Drugs, 2019):
Entries after “also recorded” stand apart in the source; their conditions may differ. Where two headings read alike, the source gives them in different places.

How the values were obtained:
[1] = target: T1, rat brain α4β2 nAChRs (Rattus norvegicus, UniProt P09483+P12390); test: [3H]-methylcarbamylcholine binding to rat brain membranes, pH dependence
T1 construct: from tissue; host or cells: whole rat brain membranes
Source text: Initially, we measured the pH-dependent binding of [^3H]-methylcarbamylcholine ([^3H]-MCC) to rat brain α4β2 nAChRs. In the absence of anabaseine we found a large (approximately 3-fold) enhancement of [^3H]-MCC binding as pH increased from 6.0 to 7.8. While interesting in its own regard, since MCC is permanently ionized, this marked pH dependence of [^3H]-MCC nAChR affinity complicated the analysis of the effect of pH on anabaseine binding, which was indirectly measured by [^3H]-MCC displacement. Anabaseine inhibition of [^3H]-MCC binding at each pH in Figure 2 is expressed with respect to the binding of [^3H]-MCC alone at the same pH, so as to compensate for [^3H]-MCC binding pH dependence. […]
Figure 2 Concentrations of the three major forms of anabaseine as a function of pH as determined by UV spectrophotometry. Left Ordinate: Concentration of each form expressed as % of the total anabaseine concentration. […]
[^3H]-[…] ([^3H]-MCC) binding assays with rat brain membranes were carried out as previously reported with a final concentration of 0.5 nM [^3H]-MCC [8, 54]; 2.8 µM atropine sulfate (Sigma-Aldrich) was added to inhibit binding to muscarinic receptors. […] Nonspecific binding was measured in the presence of 1 mM (S)-nicotine hydrogen tartrate (Sigma-Aldrich). […]

[2] = target: T2, human α4β2 neuronal nAChR expressed in tsA201 cells (Homo sapiens, UniProt P17787+P43681); test: Activation of human α4β2 neuronal nAChR, membrane depolarization FlexStation assay; format: cell-based
T2 construct: expressed in transfected cells
T2 sequence (P43681 29-627): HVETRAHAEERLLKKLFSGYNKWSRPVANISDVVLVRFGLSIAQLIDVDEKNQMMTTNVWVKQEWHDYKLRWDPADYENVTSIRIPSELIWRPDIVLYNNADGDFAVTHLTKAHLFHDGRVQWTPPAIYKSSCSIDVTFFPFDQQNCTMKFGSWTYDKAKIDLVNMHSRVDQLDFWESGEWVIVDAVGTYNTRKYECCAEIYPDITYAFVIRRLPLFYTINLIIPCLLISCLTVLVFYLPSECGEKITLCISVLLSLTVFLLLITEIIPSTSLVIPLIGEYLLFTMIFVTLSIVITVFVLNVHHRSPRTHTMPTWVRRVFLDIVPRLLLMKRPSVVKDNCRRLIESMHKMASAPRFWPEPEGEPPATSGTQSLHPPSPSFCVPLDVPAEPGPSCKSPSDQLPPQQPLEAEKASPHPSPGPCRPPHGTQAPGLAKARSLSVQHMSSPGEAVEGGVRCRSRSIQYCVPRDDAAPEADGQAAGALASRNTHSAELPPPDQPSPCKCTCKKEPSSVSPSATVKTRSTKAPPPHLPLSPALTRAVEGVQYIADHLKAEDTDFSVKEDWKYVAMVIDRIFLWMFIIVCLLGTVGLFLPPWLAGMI
T2 sequence (P17787 26-502): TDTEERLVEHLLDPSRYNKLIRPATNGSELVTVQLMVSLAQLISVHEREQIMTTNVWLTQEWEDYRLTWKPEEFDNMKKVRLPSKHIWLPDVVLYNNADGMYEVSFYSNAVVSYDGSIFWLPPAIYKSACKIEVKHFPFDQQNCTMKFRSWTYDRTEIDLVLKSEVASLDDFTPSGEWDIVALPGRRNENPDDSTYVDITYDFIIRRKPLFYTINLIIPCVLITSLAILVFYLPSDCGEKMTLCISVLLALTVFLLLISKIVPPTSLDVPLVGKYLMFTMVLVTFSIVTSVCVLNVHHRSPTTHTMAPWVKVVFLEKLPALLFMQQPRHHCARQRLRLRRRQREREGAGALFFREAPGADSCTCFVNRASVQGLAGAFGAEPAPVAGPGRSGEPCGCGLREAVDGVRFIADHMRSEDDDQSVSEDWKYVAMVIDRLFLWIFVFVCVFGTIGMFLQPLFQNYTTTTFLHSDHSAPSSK
Description: Figure 3 Activation of the human α4β2 neuronal nAChR expressed in tsA201 cells as measured by membrane depolarization using the FlexStation assay. Each point generally is the mean of four separate measurements. All responses were normalized with respect to the response of the cells to 0.5 μM epibatidine. Potency and efficacy estimates from these curves are found in Table 1.
TsA201 cells expressing human α4β2 were maintained in media consisting of Dulbecco’s Modified Eagle medium supplemented with 10% FBS, 100 units/mL penicillin and 100 μg/mL streptomycin, 2 mM L-glutamine, 0.5 mg/mL zeocin and 0.6 mg/mL geneticin [55]. Cells were grown in 75 cm^2 culture flasks, which were housed in a humidified incubator (Fisher Scientific, Atlanta, GA, USA at 37 °C in an atmosphere of 5% CO2. They were grown to around 80–90% confluence after harvesting with 0.25% trypsin and being split weekly at a subcultivation ratio of between 1:6 and 1:10.
(§1) Our experimental protocol was based on the initial study of Fitch et al.. Cells were seeded at a density of roughly 5 × 10^4 to 10^5 cells/well in 96-well flat-bottom black wall culture plates coated with 50 μg /ml poly-D-lysine hydrobromide (Sigma-Aldrich, 70–150 kDa) and grown overnight in 100 μL culture medium. A proprietary membrane potential dye obtained from Molecular Devices (San Diego, CA, USA) was prepared by dissolving one bottle of dye into 30 mL of Hanks Saline (pH = 7.4) containing 20 mM HEPES buffer. The cells were incubated with 100 μL of dye for 30 min at 37 °C prior to the robotically controlled concentration-response experiment. Serial dilutions of a compound for dose-response analysis were prepared in 96-well plates by evaporation of a methanolic stock solution and then reconstituted in the appropriate volume of Hanks saline. Fluid transfer and readings were performed by a FlexStation fluorimeter (Molecular Devices). Excitation and emission wavelengths were set to 530 nm and 565 nm with a cutoff of 550 nm. The first 17 s were used as a basal reading. At 18 s, a test compound was added to determine the EC50, followed by addition of 25 μL KCl (40 mM final concentration) at 160 s to serve as a fluorescence calibrant. Compounds that had no measurable depolarizing activity on the TsA201 cells were then tested for their ability to inhibit a 5 µM control ACh response. Data were fitted and graphed with Prism (GraphPad) to determine the EC50.

[3] = target: T3, rat brain α4β2 nAChR (Rattus norvegicus, UniProt P09483+P12390); test: [3H]-cytisine displacement binding, rat brain membranes
T3 construct: from tissue; host or cells: whole rat brain membranes
T3 sequence (P09483 31-630): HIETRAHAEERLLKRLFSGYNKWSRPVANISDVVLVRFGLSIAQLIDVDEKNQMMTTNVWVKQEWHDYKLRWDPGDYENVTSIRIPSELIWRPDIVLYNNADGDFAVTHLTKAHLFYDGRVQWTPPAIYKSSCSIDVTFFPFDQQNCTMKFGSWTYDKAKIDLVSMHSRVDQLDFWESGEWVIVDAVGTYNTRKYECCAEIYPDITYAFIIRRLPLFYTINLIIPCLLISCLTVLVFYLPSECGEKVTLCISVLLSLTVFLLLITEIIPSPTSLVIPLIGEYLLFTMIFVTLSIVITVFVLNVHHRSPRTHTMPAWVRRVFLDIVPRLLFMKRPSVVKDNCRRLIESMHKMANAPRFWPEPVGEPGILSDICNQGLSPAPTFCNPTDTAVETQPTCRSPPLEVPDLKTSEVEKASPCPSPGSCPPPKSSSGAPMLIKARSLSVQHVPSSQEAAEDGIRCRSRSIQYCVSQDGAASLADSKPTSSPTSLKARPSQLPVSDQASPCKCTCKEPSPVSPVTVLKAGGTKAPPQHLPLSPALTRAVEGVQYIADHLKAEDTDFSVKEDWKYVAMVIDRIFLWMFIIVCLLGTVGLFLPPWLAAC
T3 sequence (P12390 25-500): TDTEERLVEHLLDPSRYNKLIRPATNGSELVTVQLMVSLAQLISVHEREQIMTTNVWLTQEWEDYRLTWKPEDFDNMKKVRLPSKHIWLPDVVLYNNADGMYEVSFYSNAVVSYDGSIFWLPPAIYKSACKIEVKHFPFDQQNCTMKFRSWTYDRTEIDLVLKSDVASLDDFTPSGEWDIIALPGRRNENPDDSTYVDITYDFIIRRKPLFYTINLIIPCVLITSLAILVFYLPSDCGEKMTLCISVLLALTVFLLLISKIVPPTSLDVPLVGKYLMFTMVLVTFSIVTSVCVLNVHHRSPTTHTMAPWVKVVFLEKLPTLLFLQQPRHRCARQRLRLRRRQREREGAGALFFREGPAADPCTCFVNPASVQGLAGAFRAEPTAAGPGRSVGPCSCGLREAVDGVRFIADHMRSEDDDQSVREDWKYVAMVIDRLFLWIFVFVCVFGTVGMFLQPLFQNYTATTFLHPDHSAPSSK

[4] = target: T4, rat α7 nAChR (Rattus norvegicus, UniProt Q05941); test: biochemical; format: binding
T4 construct: from tissue; host or cells: rat brain membranes
T4 sequence (Q05941 23-502): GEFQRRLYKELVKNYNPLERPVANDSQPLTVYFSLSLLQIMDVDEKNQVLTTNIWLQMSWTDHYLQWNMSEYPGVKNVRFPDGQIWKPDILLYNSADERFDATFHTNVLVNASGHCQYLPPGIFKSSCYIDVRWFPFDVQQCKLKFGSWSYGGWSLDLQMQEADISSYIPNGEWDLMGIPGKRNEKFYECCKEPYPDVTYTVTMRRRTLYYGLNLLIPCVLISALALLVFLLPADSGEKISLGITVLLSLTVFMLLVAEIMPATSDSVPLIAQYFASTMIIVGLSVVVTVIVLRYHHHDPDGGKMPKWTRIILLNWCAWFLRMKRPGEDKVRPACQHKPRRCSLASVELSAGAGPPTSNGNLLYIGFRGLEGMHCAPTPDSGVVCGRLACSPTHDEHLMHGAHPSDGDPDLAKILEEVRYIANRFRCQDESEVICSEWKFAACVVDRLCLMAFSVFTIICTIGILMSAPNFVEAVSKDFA

[5] = target: T5, human fetal (TE671 cells) skeletal muscle nAChR (Homo sapiens, UniProt P02708+P07510+Q07001); test: Activation of human fetal skeletal muscle nAChR (TE671 cells), membrane depolarization FlexStation assay; format: cell-based
T5 construct: endogenous in cells; host or cells: TE671 cells (human)
Description: Figure 4 Activation of the human fetal (TE671 cells) skeletal muscle nAChR by the various stable anabaseine analogs measured by membrane depolarization using the FlexStation assay. Each point is generally the mean of four separate measurements. Responses were normalized to the 5 μM epibatidine response. Potency and efficacy estimates from these curves are found in Table 1.
as §1

[6] = target: T6, Torpedo electric organ membrane nAChRs (Tetronarce californica, UniProt P02710+P02714+P02718); test: biochemical; format: binding
T6 construct: from tissue; host or cells: Torpedo electric organ membranes
T6 sequence (P02710 25-461): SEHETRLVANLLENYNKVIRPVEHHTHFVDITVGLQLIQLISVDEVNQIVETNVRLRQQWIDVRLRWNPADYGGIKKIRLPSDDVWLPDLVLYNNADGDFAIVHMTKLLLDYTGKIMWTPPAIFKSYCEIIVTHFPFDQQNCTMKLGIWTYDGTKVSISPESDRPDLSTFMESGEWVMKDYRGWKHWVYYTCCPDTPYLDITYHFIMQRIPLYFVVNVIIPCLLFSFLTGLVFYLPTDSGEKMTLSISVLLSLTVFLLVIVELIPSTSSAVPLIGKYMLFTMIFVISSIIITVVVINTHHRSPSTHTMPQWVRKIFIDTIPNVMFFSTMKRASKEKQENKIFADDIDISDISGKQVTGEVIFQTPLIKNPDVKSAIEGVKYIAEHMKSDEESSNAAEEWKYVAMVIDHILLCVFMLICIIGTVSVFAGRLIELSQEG
T6 sequence (P02714 18-506): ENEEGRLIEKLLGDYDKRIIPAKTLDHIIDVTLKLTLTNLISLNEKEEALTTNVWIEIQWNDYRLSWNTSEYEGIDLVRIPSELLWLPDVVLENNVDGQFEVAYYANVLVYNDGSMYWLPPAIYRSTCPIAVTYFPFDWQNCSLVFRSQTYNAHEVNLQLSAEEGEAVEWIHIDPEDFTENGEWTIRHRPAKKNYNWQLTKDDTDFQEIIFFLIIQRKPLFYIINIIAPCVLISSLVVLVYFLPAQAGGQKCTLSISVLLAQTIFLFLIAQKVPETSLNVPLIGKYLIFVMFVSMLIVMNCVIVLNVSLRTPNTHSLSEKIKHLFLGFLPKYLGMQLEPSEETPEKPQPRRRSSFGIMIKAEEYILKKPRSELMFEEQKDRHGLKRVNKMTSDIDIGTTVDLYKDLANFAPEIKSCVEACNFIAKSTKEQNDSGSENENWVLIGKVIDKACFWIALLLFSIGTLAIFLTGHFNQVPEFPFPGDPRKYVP
T6 sequence (P02712 25-493, further chain): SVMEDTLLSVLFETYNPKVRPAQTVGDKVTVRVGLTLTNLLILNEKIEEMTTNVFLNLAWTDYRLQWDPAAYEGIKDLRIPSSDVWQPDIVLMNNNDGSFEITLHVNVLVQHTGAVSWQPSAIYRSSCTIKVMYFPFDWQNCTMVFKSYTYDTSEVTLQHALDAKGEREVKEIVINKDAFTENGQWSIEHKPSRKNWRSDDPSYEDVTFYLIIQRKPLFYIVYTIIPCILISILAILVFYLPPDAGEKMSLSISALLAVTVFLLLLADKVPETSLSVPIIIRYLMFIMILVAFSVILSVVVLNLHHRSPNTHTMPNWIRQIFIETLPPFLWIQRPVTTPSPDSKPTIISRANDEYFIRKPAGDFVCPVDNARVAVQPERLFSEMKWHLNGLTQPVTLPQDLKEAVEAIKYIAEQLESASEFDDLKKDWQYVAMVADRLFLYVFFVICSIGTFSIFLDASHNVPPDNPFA
T6 sequence (P02718 22-522): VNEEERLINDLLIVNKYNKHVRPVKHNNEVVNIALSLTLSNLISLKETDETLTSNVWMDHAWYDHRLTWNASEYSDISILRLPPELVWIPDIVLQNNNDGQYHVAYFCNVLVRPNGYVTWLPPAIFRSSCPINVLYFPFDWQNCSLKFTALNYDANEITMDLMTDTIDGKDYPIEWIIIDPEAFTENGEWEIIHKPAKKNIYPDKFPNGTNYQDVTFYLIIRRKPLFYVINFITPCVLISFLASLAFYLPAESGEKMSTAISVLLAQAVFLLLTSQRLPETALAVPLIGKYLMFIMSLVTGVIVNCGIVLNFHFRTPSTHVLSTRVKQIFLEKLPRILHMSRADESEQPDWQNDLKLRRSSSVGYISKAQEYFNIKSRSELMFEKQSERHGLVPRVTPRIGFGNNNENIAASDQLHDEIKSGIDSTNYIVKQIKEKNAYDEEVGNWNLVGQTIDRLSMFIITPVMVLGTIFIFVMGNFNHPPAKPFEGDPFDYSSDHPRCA

[7] = Ionization and ring-chain form distribution in water; format: physicochemical
Source text: Figure 2 Concentrations of the three major forms of anabaseine as a function of pH as determined by UV spectrophotometry. Left Ordinate: Concentration of each form expressed as % of the total anabaseine concentration. The red curve is the estimated cyclic imine concentration and the blue curve is the concentration of the cyclic iminium or the monocationic ammonium-ketone form of anabaseine (Assuming that KH = 1.0, the concentrations of these ionized forms are equal). Right ordinate: pH dependence of anabaseine inhibition of [^3H]-MCC binding to rat brain α4β2 receptors (Standard error bars included). Anabaseine inhibition (mean ± SEM) at each pH was the average of six replicate measurements.
Since the two monocationic forms show the same pH dependence and the same concentration when expressed as % of total anabaseine, another approach was required to assess their activities separately. We resorted to synthesizing and testing stable analogs that resemble the three anabaseine forms. […] The monocationic ammonium-ketone open-chain form analog selected was 5-methylamino-1-(3-pyridyl)-1-pentanone, MAPP, shown in Figure 1; it mainly ([…]) exists in their open-chain form in water at physiological pH; its cyclic imine or iminium form, N-methylanabaseine, is present in very small concentration (≤5%). […]

[8] = test system: vertebrate brain and neuromuscular nAChRs; test: Overall comparison of agonist potency and binding affinity at vertebrate nAChRs; conditions: for activity relative to that predicted if the one form was solely active: several vertebrate brain and neuromuscular nAChRs
Source text: PTHP was the only anabaseine analog that approached anabaseine in potency and binding affinity.
The ability of a variety of 2-(aryl)-1,4,5,6-tetrahydropyrmidines to block neuromuscular nAChRs and produce teratogenic effects in chick embryos was reported long ago [45, 46]. Some of these compounds were reported to be nAChR agonists. The only study of PTHP on neurons was that of Upshall et al. on leech Retzius cells. Our results also indicate that PTHP is a potent agonist at neuronal as well as neuromuscular nAChRs. […] For PTHP to be equipotent with anabaseine, based on the I^+ form being the only active form, its EC50 would need to be ~1/3 of the EC50 of anabaseine, since the anabaseine (I^+) is ~1/3 of its total concentration.

[9] = cited from earlier work
[10] = target: T7, human GABAA receptor (UniProt P28472+P62813); test: GABAA receptor activation, membrane depolarization FlexStation assay (WSS1 cells); format: cell-based; conditions: human GABAA receptor in HEK-derived WSS1 cells
T7 construct: host or cells: WSS1 cells (HEK cell line)
Description: Figure 5 Investigation of possible activation of the human GABAA receptor measured by membrane depolarization using a FlexStation assay. Each point is the mean of three separate measurements.
WSS1 cells from ATCC (Manassas, VA, USA) which express functional GABAA receptors were cultured as previously described by Wong et al.. The cells were grown to near confluence and then transferred to black well, clear bottom 96-well assay plates (Corning Incorporated, Corning, NY, USA) 12–18 h prior to the assay. Molecular Devices blue dye (Sunnyvale, CA, USA) was reconstituted as previously described. The WSS1 cells were allowed to come to room temperature, the culture medium was then aspirated, replaced with the blue dye and equilibrated for 30 min before being placed on a FlexStation 3 plate reader (Molecular Devices, Sunnyvale, CA, USA). […] Programmed readings and data analysis were performed as previously described.

[11] = target: T1, rat brain α4β2 nAChRs; conditions: read-out: Kd of radioligand with rat brain membranes; cited from earlier work
[12] = no reference given; cited from earlier work
[13] = displacement of [3H]-cytisine, rat brain membranes, read-out: Ki Neuronal nAChR Rat α4β

T1 sequence (P09483 31-630): as the sequence (P09483 31-630) above
T1 sequence (P12390 25-500): as the sequence (P12390 25-500) above

Structure (SMILES): [3H]CNC(=O)OCC[N+](C)(C)C [[^3H]-MCC, [^3H]-methylcarbamylcholine]
- enhancement of binding with increasing pH ([1]; pH increased from 6.0 to 7.8, absence of anabaseine): approximately 3 fold

Structure (SMILES): c1ccc(-c2cccnc2)nc1 [2,3′-Bipyridyl, 2,3′-bipyridyl]
- EC50 [2]: > 1000 µM
- Ki [3, 13]: > 50000 nM
- Ki [4]: > 2300 µM
- EC50 [5]: 660 ± 60 µM
- IC50 [6]: 343000 ± 48000 nM
- fraction of molecules unionized ([7]; pH 7.4): > 99.9%
- activity relative to that predicted if the one form was solely active [8]: ≤ 1%

Structure (SMILES): CNCCCCC(=O)c1cccnc1 [MAPP, 5-methylamino-1-(3-pyridyl)-1-pentanone]
- EC50 [2]: > 2000 µM
- Ki [3, 13]: 10000 nM
- Ki [4]: > 2000 µM
- EC50 [5]: > 1000 µM
- IC50 [6]: > 500000 nM
- activity relative to that predicted if the one form was solely active [8]: ≤ 1%
- concentration of cyclic imine or iminium form (N-methylanabaseine) ([9]; in water at physiological pH): ≤ 5%

Structure (SMILES): c1cncc(C2=NCCCC2)c1 [Anabaseine, anabaseine, reference compound]
- EC50 ([2]; tsA201 cells, membrane depolarization, normalized to 0.5 μM epibatidine response, read-out: EC50 Neuronal nAChR Human α4β2): 2.85 ± 1 µM
- Ki [3]: 96 ± 10 nM
- Ki ([4]; read-out: Ki Neuronal nAChR Rat α7): 1.87 ± 0.1 µM
- EC50 ([5]; TE671 cells, membrane depolarization, normalized to 5 μM epibatidine response, read-out: EC50 Neuromuscular nAChR Human TE671): 1.2 µM
- IC50 ([6]; read-out: IC50 Neuromuscular nAChR Torpedo Electric Organ): 290 ± 180 nM
- GABAA receptor agonist activity [10]: not GABAA agonists; also recorded: no activity was detected
- pH dependence of inhibition (displacement) of [3H]-MCC binding ([1]; fixed anabaseine concentration, pH 5.8 to 7.8, relative to [3H]-MCC alone at the same pH): did decrease with increased pH
- cyclic iminium (I+) form as fraction of total concentration ([9]; pH 7.4): ~ 1/3

Structure (SMILES): c1cncc(C2=NCCC2)c1 [myosmine]
- GABAA receptor agonist activity [10]: not GABAA agonists; also recorded: no activity was detected

Structure (SMILES): CNC(=O)OCC[N+](C)(C)C [[^3H]-MCC, [^3H]-methylcarbamylcholine]
- Kd [11]: 11 nM

Structure (SMILES): Cl.c1cncc(C2=NCCCN2)c1 [PTHP, 2-(3-pyridyl)-1,4,5,6-tetrahydropyrimidine hydrochloride]
- EC50 [2]: 3.64 ± 1.2 µM
- Ki [3, 13]: 380 ± 70 nM
- Ki [4]: 1.54 ± 0.76 µM
- EC50 [5]: 1.7 ± 0.3 µM
- IC50 [6]: 470 ± 10 nM
- fraction ionized ([7]; pH 7.4, predicted): > 99%
- potency relative to that predicted for the anabaseine cyclic iminium form ([8]; from Figure 3, Figure 4 and Table 1): approximately 30%
- pKa of amidinium group [12]: > 10
